Measurements from publication PMC12622164, “Endothelial CYB5R1 is a Coenzyme Q reductase that suppresses ferroptosis and atherosclerosis” (Research Square, 2025).

Target: T1, recombinant CYB5R1 (Δ1–29) (Homo sapiens, UniProt Q9UHQ9)
T1 construct: soluble form lacking first 29 residues (membrane anchor); His6-SUMO (Smt3) fusion cleaved by Ulp1; E. coli SoluBL21
T1 sequence (Q9UHQ9 30-305): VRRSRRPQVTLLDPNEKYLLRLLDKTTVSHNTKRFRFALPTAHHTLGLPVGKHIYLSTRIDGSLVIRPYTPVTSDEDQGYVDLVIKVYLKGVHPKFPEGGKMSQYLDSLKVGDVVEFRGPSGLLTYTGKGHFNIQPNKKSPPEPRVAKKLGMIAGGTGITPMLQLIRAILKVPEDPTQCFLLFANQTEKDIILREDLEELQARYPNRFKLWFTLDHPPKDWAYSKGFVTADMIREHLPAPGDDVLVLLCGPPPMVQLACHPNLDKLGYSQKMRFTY
Assay: NADH consumption at […] nm
Type: biochemical
Conditions: 200 uM CoQ0; 500 uM NADH; 100 mM Tris-HCl pH 7.4; no CYB5B

Compound: COC1=C(OC)C(=O)C(C)=CC1=O [CoQ0, 2,3-dimethoxy-5-methyl-1,4-benzoquinone]
- NADH consumption at 340 nm: recombinant CYB5R1 readily reduced CoQ0, a water-soluble derivative of CoQ10
